Reference: patent publication US20220143003A1, “COMPOSITIONS AND METHODS TO TREAT NON-ALCOHOLIC FATTY LIVER DISEASES (NAFLD)” (Coherus Biosciences, Inc., priority 2018, published 2022)

Tested on: DIO-NASH mice
Assay: Plasma urea at termination
Type: in vivo, male C57BL/6JRj mice
Details: termination; group mean; CHS-131 High dose (alone or combined)
Method: For plasma biochemistry, tail blood was drawn directly through the capillary of a Microvette/Vacuette of the right dimension and anticoagulant and mixed by inversion 5 times. Blood was placed at 4° C. until centrifugation at 3000×g for 10 minutes at 4° C. The plasma supernatants were transferred to new tubes and immediately frozen on dry ice and stored at −80° C. until analysis.
Mouse insulin was measured in single determinations using the MSD platform (Meso Scale Diagnostics).
Plasma urea at termination (mmol/L). Values expressed as mean of n=12-14+SEM.

**Q.** Which “Plasma urea at termination” value does the source give for CCCCCCCCCCCCCCCC(=O)N[C@@H](CCC(=O)NCCCC[C@H](NC(=O)[C@H](C)NC(=O)[C@H](C)NC(=O)[C@H](CCC(N)=O)NC(=O)CNC(=O)[C@H](CCC(=O)O)NC(=O)[C@H](CC(C)C)NC(=O)[C@H](Cc1ccc(O)cc1)NC(=O)[C@H](CO)NC(=O)[C@H](CO)NC(=O)[C@@H](NC(=O)[C@H](CC(=O)O)NC(=O)[C@H](CO)NC(=O)[C@@H](NC(=O)[C@H](Cc1ccccc1)NC(=O)[C@@H](NC(=O)CNC(=O)[C@H](CCC(=O)O)NC(=O)[C@H](C)NC(=O)[C@@H](N)Cc1cnc[nH]1)[C@@H](C)O)[C@@H](C)O)C(C)C)C(=O)N[C@@H](CCC(=O)O)C(=O)N[C@@H](Cc1ccccc1)C(=O)N[C@H](C(=O)N[C@@H](C)C(=O)N[C@@H](Cc1c[nH]c2ccccc12)C(=O)N[C@@H](CC(C)C)C(=O)N[C@H](C(=O)N[C@@H](CCCNC(=N)N)C(=O)NCC(=O)N[C@@H](CCCNC(=N)N)C(=O)NCC(=O)O)C(C)C)[C@@H](C)CC)C(=O)O [Liraglutide, reference compound] here?
**A.** The value was 7.86 mmol/L.
